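Protocol summary: plate cells (96-well), add compound at 5 concentrations, incubate 48 h, interpolate endpoints linearly. Here, GI50 denotes the concentration required for 50% inhibition of growth.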 The source made the active and inactive calls. No stated cut-off is given here; in the data, active = GI50 up to about 1.1 µM and inactive = higher.
Key:
Assay in all cases: inhibition of tumour cell growth, NCI panel, 48 h
[1] = system: COLO 205
[2] = system: EKVX
[3] = system: IGROV-1
[4] = system: K562
[5] = system: M14
[6] = system: MCF7
[7] = system: MOLT-4
[8] = system: OVCAR-4
[9] = system: RXF 393
[10] = system: SF-295
[11] = system: SF-539
[12] = system: SK-MEL-5
[13] = system: SR
[14] = system: SW-620
[15] = system: UACC-257
[16] = system: A498
[17] = system: HOP-62
[18] = system: Malme-3M
[19] = system: NCI-H226
[20] = system: SNB-19

| Structure (SMILES) | GI50 [1] | GI50 [2] | GI50 [3] | GI50 [4] | GI50 [5] | GI50 [6] | GI50 [7] | GI50 [8] | GI50 [9] | GI50 [10] | GI50 [11] | GI50 [12] | GI50 [13] | GI50 [14] | GI50 [15] | GI50 [16] | GI50 [17] | GI50 [18] | GI50 [19] | GI50 [20] |
| --- | --- | --- | --- | --- | --- | --- | --- | --- | --- | --- | --- | --- | --- | --- | --- | --- | --- | --- | --- | --- |
| CCN1c2ccccc2NC(=S)c2c(-c3ccccc3)n[nH]c21 | 31.5 µM (inactive) | 21 µM (inactive) | 34.1 µM (inactive) | 17.6 µM (inactive) | 31.6 µM (inactive) | 22.4 µM (inactive) | 17 µM (inactive) | 36.6 µM (inactive) | 27.7 µM (inactive) | 27.4 µM (inactive) | 39.4 µM (inactive) | 20.3 µM (inactive) | 24.7 µM (inactive) | 27 µM (inactive) | 48.2 µM (inactive) |  |  |  |  |  |
| CCOP(=O)(COCCn1nc(Br)c(=O)[nH]c1=O)OCC | > 100 µM (inactive) | > 100 µM (inactive) | > 100 µM (inactive) | > 100 µM (inactive) | > 100 µM (inactive) | > 100 µM (inactive) | > 100 µM (inactive) |  | > 100 µM (inactive) |  | > 100 µM (inactive) | > 100 µM (inactive) | > 100 µM (inactive) | > 100 µM (inactive) | > 100 µM (inactive) | > 100 µM (inactive) | > 100 µM (inactive) | > 100 µM (inactive) | > 100 µM (inactive) | > 100 µM (inactive) |
| O=S(=O)(c1ccccc1)C1CC(c2nc3ccccc3[nH]2)=NO1 (stereo unspecified) | 37.3 µM (inactive) | 84.9 µM (inactive) | 16.6 µM (inactive) | 31.6 µM (inactive) |  | 53.3 µM (inactive) | 39.1 µM (inactive) | > 100 µM (inactive) | 83 µM (inactive) | > 100 µM (inactive) | 51.4 µM (inactive) | 70.3 µM (inactive) | 29.3 µM (inactive) | 43.8 µM (inactive) | > 100 µM (inactive) | 43 µM (inactive) | > 100 µM (inactive) | 8.26 µM (inactive) | > 100 µM (inactive) | > 100 µM (inactive) |
| O=C(O)c1cn2c3c(cc(N4CCN(CCO)CC4)cc3c1=O)SCC2 | > 100 µM (inactive) | > 100 µM (inactive) | > 100 µM (inactive) | 65.9 µM (inactive) |  | 29.7 µM (inactive) | 53.8 µM (inactive) | > 60.8 µM (inactive) | > 100 µM (inactive) | > 100 µM (inactive) | 46.1 µM (inactive) | > 100 µM (inactive) |  | > 100 µM (inactive) | > 100 µM (inactive) | > 100 µM (inactive) | 48.4 µM (inactive) | 37.2 µM (inactive) | 63.8 µM (inactive) | 96.2 µM (inactive) |
| C=C1C(=O)OC2/C=C(\C(=O)O)CC/C=C(\C)CC(OC(=O)/C=C(\C)CC)C12 (stereo unspecified) | 17 µM (inactive) | 24.7 µM (inactive) | 19.4 µM (inactive) | > 100 µM (inactive) | 16.7 µM (inactive) |  | > 100 µM (inactive) | 16.9 µM (inactive) | 14 µM (inactive) | 17.3 µM (inactive) | 15.7 µM (inactive) | 18.8 µM (inactive) | > 100 µM (inactive) | 16.6 µM (inactive) | 18.2 µM (inactive) | 17.9 µM (inactive) | 20.1 µM (inactive) | 18.2 µM (inactive) | 17.9 µM (inactive) | 18.9 µM (inactive) |
| OC1CCSc2ccccc21 (stereo unspecified) | > 100 µM (inactive) | > 100 µM (inactive) | > 100 µM (inactive) | > 100 µM (inactive) | > 100 µM (inactive) |  | > 100 µM (inactive) | > 100 µM (inactive) | > 100 µM (inactive) |  | > 100 µM (inactive) | > 100 µM (inactive) | > 100 µM (inactive) | > 100 µM (inactive) |  |  | > 100 µM (inactive) | > 100 µM (inactive) | > 100 µM (inactive) | > 100 µM (inactive) |
| COc1cc(C2S/C(=C/c3ccccc3)C(=O)N2c2cccc(NC(C)=O)c2)cc(OC)c1OC (stereo unspecified) | 27.3 µM (inactive) | 19.3 µM (inactive) |  | 39.5 µM (inactive) | 34.4 µM (inactive) | 26.1 µM (inactive) | 30.6 µM (inactive) | 24.4 µM (inactive) | 28.8 µM (inactive) | 40.5 µM (inactive) |  | 35.2 µM (inactive) | 37.9 µM (inactive) |  | 66.2 µM (inactive) | 32.5 µM (inactive) | 67 µM (inactive) | 23.4 µM (inactive) | > 100 µM (inactive) | 58.7 µM (inactive) |
| OC(c1cccnc1Cl)c1nc2ccccc2c2ccnc(Cl)c12 (stereo unspecified) | 3.38 µM (inactive) | 19.2 µM (inactive) | 5.02 µM (inactive) | 1.4 µM (inactive) | 2.08 µM (inactive) | 3.04 µM (inactive) | 3.67 µM (inactive) | 27.5 µM (inactive) | 4.12 µM (inactive) | 2.52 µM (inactive) | 3.02 µM (inactive) | 3.46 µM (inactive) | 0.396 µM (active) | 3.06 µM (inactive) | > 100 µM (inactive) | 3.23 µM (inactive) | 2.15 µM (inactive) | 6.92 µM (inactive) |  | 6.82 µM (inactive) |
| Cc1ccc(C2=C(C#N)C(N)OC3=C2COc2ccccc23)cc1 (stereo unspecified) | > 100 µM (inactive) | 7.19 µM (inactive) | 57.8 µM (inactive) | 80.7 µM (inactive) | > 100 µM (inactive) | > 100 µM (inactive) | 16.6 µM (inactive) | 13.5 µM (inactive) |  |  | 39.6 µM (inactive) | 63 µM (inactive) | 32.6 µM (inactive) | > 100 µM (inactive) | > 100 µM (inactive) | 24.1 µM (inactive) | 15.6 µM (inactive) | 22.8 µM (inactive) | > 100 µM (inactive) | 19 µM (inactive) |
| NNC(N)Nc1ccccc1 (stereo unspecified) | > 100 µM (inactive) | > 100 µM (inactive) | > 100 µM (inactive) | > 100 µM (inactive) | > 100 µM (inactive) | > 100 µM (inactive) | > 100 µM (inactive) | > 100 µM (inactive) | > 100 µM (inactive) | > 100 µM (inactive) | > 100 µM (inactive) | > 100 µM (inactive) | > 100 µM (inactive) | > 100 µM (inactive) | > 100 µM (inactive) | > 100 µM (inactive) | > 100 µM (inactive) | > 100 µM (inactive) | > 100 µM (inactive) | > 100 µM (inactive) |
| COc1cc(O)c2c(c1)C(=O)c1cc3c(c(O)c1C2=O)C(OC1OC(C)C(O)C(O)C1OC)C(OC)C(C)(O)C3=O (stereo unspecified) | 0.76 µM (active) | 2.43 µM (inactive) | 2.52 µM (inactive) |  |  | 2.54 µM (inactive) |  | 0.476 µM (active) | 1.22 µM (inactive) | 1.82 µM (inactive) | 1.85 µM (inactive) | 0.865 µM (active) |  | 1.08 µM (active) | 0.723 µM (active) | 2.04 µM (inactive) | 3.82 µM (inactive) | 0.893 µM (active) | 3.48 µM (inactive) | 2.94 µM (inactive) |
| CN1C[C@H]2[C@@H](C1=O)[C@H](c1ccc([N+](=O)[O-])cc1)ON2C | > 100 µM (inactive) |  | > 100 µM (inactive) | > 100 µM (inactive) | > 100 µM (inactive) | > 100 µM (inactive) | > 100 µM (inactive) | > 100 µM (inactive) |  | > 100 µM (inactive) |  | > 100 µM (inactive) | > 100 µM (inactive) | > 100 µM (inactive) | > 100 µM (inactive) |  | > 100 µM (inactive) |  | > 100 µM (inactive) | > 100 µM (inactive) |
| Cc1ccc(C)c(NC(=O)C(=O)C(C(=O)c2ccc3ccccc3c2)C2OC(=O)c3ccccc32)c1 (stereo unspecified) | 15.8 µM (inactive) | 16.5 µM (inactive) | 18.2 µM (inactive) | 25.7 µM (inactive) | 14.6 µM (inactive) |  | 5.25 µM (inactive) | 21.9 µM (inactive) | 2.97 µM (inactive) | 10.4 µM (inactive) | 4.75 µM (inactive) | 17.2 µM (inactive) | 4.45 µM (inactive) | 11.2 µM (inactive) | 15.5 µM (inactive) | 16.8 µM (inactive) | 20.2 µM (inactive) |  | 2.44 µM (inactive) | 8 µM (inactive) |
| O=Cc1c(Cn2ccnc2)c2cc([N+](=O)[O-])ccc2n1Cc1ccccc1 | > 100 µM (inactive) | > 100 µM (inactive) | > 83 µM (inactive) | 97.1 µM (inactive) |  | 75.3 µM (inactive) | > 100 µM (inactive) | > 100 µM (inactive) | > 100 µM (inactive) | 36.8 µM (inactive) | > 72.6 µM (inactive) | 99.1 µM (inactive) |  | > 100 µM (inactive) | > 100 µM (inactive) | > 93.3 µM (inactive) | 27.3 µM (inactive) | > 100 µM (inactive) | > 100 µM (inactive) | 49.3 µM (inactive) |
| Cc1cccc(C(O)c2ccccn2)c1O (stereo unspecified) | > 100 µM (inactive) | > 100 µM (inactive) | > 100 µM (inactive) | > 100 µM (inactive) |  | > 100 µM (inactive) | > 100 µM (inactive) |  | > 100 µM (inactive) | > 100 µM (inactive) | > 100 µM (inactive) | > 100 µM (inactive) | > 100 µM (inactive) | > 100 µM (inactive) | > 100 µM (inactive) |  | > 100 µM (inactive) | > 100 µM (inactive) | > 100 µM (inactive) | > 100 µM (inactive) |
| O=C(Nc1ccc(Cl)cc1)C(=O)C(C(=O)c1ccccc1-c1ccccc1)C1OC(=O)c2ccccc21 (stereo unspecified) | 21.7 µM (inactive) | 18.2 µM (inactive) | 29.1 µM (inactive) | 34.4 µM (inactive) | 20 µM (inactive) |  | 29.4 µM (inactive) | 35.5 µM (inactive) | 11.6 µM (inactive) | 26.9 µM (inactive) | 22.5 µM (inactive) | 14.5 µM (inactive) | 17.6 µM (inactive) | 22.4 µM (inactive) | 21.9 µM (inactive) | 16.4 µM (inactive) | 26.4 µM (inactive) |  | 6.34 µM (inactive) | 16.6 µM (inactive) |
